We go through ten compounds from patent publication US6420367B1, “Pyrimidine derivatives exhibiting antitumor activity” (Shionogo & Co., Ltd., priority 1998, dated 2002).

Assay [1] relates to human squamous lung cancer Ma44. Briefly: In vitro cell growth inhibition test, MTT assay. The assay is classed as cell-based. Particulars: MTT assay 4 days after compound addition. The source says: (§1) Test Example 2 In Vitro Cell Growth Inhibition Test Cells and MTT Assay
(§2) Human squamous lung cancer […], human squamous lung cancer Ma44, human lung adenocarcinoma A549, human colon cancer HT29 and human pancreas cancer PANC-1 were used.
(In general: Tetrazolium assays rely on reduction of a dye to a coloured formazan, in cell work by metabolically active cells.)

Assay [2] deals with human colon cancer HT29. Briefly: In vitro cell growth inhibition test, MTT assay. Type of assay: cell-based. Particulars: MTT assay 4 days after compound addition.
From the text: as §1, §2

In assay [3] the test system is human pancreas cancer PANC-1. Briefly: In vitro cell growth inhibition test, MTT assay. The assay is classed as cell-based. Particulars: MTT assay 4 days after compound addition.
From the text: as §1, §2

The test system of assay [4] is human squamous lung cancer RERF-RC-AI. Briefly: In vitro cell growth inhibition test, MTT assay. The assay is classed as cell-based. Conditions: MTT assay 4 days after compound addition.
From the text: as §1, §2

The subject of assay [5] is human lung adenocarcinoma A549. Briefly: In vitro cell growth inhibition test, MTT assay. Particulars: MTT assay 4 days after compound addition. The assay is classed as cell-based.
From the text: as §1, §2

The subject of assay [6] is DT-R cells (pRRE3-luc-transfected v-ki-ras-transformed NIH3T3 cells); signal derived from Ras oncogene products. In words: Inhibitory effect against cellular signaling derived from Ras oncogene products: luciferase reporter, dissociation of DT-R from DT-C activity (MAC). Type of assay: cell-based, mouse. Particulars: minimal tested concentration at which luciferase activities of DT-C cells and DT-R cells dissociated. The source says:
Test Example 1 Inhibitory Effect Against Cellular Signaling Derived From Ras Oncogene Products
1) Establishment of Cell Lines Used in Assay
Based on the reporter plasmid (pGV-P (Toyo Ink, Japan)), in which luciferase gene was ligated to SV40-derived minimal promoter, we constructed a plasmid designated pRRE3-luc by inserting 3 copies of chemically synthesized oligonucleotides (Sequence: CAGGATATGACTCT, derived from mouse NVL-3 (M. A. Reddy et al.(1992)Mol. Endocrinol., 6, 1051)) into upstream of the promoter. v-ki-ras-transformed NIH3T3 cells (DT cells, provided by Dr. Makoto Noda (Kyoto Univ., School of medicine)) were transfected with this plasmid by liposome-mediated transfection and transfected cell lines stably incorporated and maintained each plasmid were obtained. We named pGV-P and pRRE3-transfected cell line as DT-C and DT-R, respectively and used in the assay described below.
2) Preparation of Samples
i) All the cell lines were cultured in Dulbecco's Modified Essential Medium (DMEM: 10% Fetal Calf Serum(FCS: Hyclone, USA)) including […] kanamycin (Meiji Seika, Japan) in humidified incubator under condition of 5% CO2 at 37° C.
ii) DT-C and DT-R cells were seeded at 2500 cells/well into flat-bottom 96 well multiplate (Sumitomo bakelite) and incubated for 24 hours.
iii) Test compounds were prepared as 1 mg/ml DMSO solution.
iv) The solution of test compounds were added to the culture. Tested compounds are used at the concentration from […] to 0.51 ng/ml with by 3-fold dilution.
v) After 24 hours, the culture supernatant was completely aspirated and […] of cell-lysing solution (PGC-50 (Toyo Ink, Japan)) was added before cells were dried up. In order to the cells were lysed completely, multiwell plates were left at room temperature for 10 to 30 min. The plates were wrapped up and stored at −20° C. till the day of measurement.
3) Measurement of Samples
i) Melt the samples by putting 96 well multiplate at 37° C. and add 90 μl/well 25 mM Tris (pH 7.5).
ii) Transfer 50 μl of the sample (110 μl) to the 96 well microplate for measurement (Microlite 1 (Dynatech)).
iii) Measure the samples by the luminometer, LUMINOUS CT9000D (Dia-Yatron, Japan). We used Pickagene luminescence kit PGL2000 or LT2.0 (Toyo Ink, Japan) as substrates for luminescence measurement (50 μl/well).
4) Judgment of the Results
i) The luciferase activity of DT-C cells and DT-R cells were plotted in the graph where the relative activity and the compound concentration were expressed as Y-axis and X-axis, respectively. We judged by the degree of dissociation between the activities of DT-C cells and DT-R cells as an index.
ii) Concretely, efficacy of the compound was expressed by two values described below.
a) Among the points of concentration tested, the minimal concentration (Minimal Active Concentration: MAC), at which the activities of DT-C cells and DT-R cells dissociated, was shown as an index of efficacy of the compound.

Values after ≈ are worked out from the molar mass of the structure shown.

With `CNC(=Nc1nc(C)ncc1CSc1nnc(-c2ccc(N)cc2)o1)NC(C)C` [Compound A-171], the “IC50, Ma44” value in assay [1] came to 0.013 µg/mL (≈ 0.0315 µM). In addition, in assay [2], the “IC50, HT29” value worked out at 0.0064 µg/mL (≈ 0.0155 µM). In addition, the “IC50, PANC-1” value in assay [3] is 0.006 µg/mL (≈ 0.0145 µM). For the same compound, the “IC50, RERF-LC-AI” value in assay [4] is 0.004 µg/mL (≈ 0.0097 µM). Also, the “IC50, A549” value in assay [5] turned out to be 0.012 µg/mL (≈ 0.0291 µM). In assay [6], the “MAC (Minimal Active Concentration)” value was determined as 0.0137 µg/mL.

For `C=CCNC(=Nc1nc(C)ncc1CSc1nnc(-c2ccc([N+](=O)[O-])cc2)o1)NCC` [Compound A-181], the “IC50, Ma44” value in assay [1] was 0.0065 µg/mL (≈ 0.0143 µM). Moreover, the “IC50, HT29” value in assay [2] came to 0.0061 µg/mL (≈ 0.0134 µM). Further, the “IC50, PANC-1” value in assay [3] came out at 0.0057 µg/mL (≈ 0.0125 µM). For the same compound, the “IC50, RERF-LC-AI” value in assay [4] was 0.0051 µg/mL (≈ 0.0112 µM). For the same compound, in assay [5], the “IC50, A549” value was found to be 0.0087 µg/mL (≈ 0.0191 µM). Further, in assay [6], the “MAC (Minimal Active Concentration)” value is 0.0137 µg/mL.

For `CCNC(=Nc1ncncc1CSc1nnc(-c2ccc([N+](=O)[O-])cc2)o1)NC` [Compound A-177], the “IC50, Ma44” value in assay [1] was 0.0043 µg/mL (≈ 0.0104 µM). In addition, the “IC50, HT29” value in assay [2] worked out at 0.0037 µg/mL (≈ 0.00893 µM). Also, in assay [3], the “IC50, PANC-1” value turned out to be 0.0038 µg/mL (≈ 0.00917 µM). For the same compound, the “IC50, RERF-LC-AI” value in assay [4] amounted to 0.002 µg/mL (≈ 0.00483 µM). Moreover, the “IC50, A549” value in assay [5] amounted to 0.0082 µg/mL (≈ 0.0198 µM). Also, the “MAC (Minimal Active Concentration)” value in assay [6] stood at 0.0412 µg/mL.

In the case of `CCNC(=Nc1nc(C)ncc1CSc1nnc(-c2ccc(N)cc2OC)o1)NCC` [Compound A-141], the “IC50, Ma44” value in assay [1] stood at 0.085 µg/mL (≈ 0.192 µM). Further, in assay [2], the “IC50, HT29” value worked out at 0.032 µg/mL (≈ 0.0723 µM). In addition, in assay [3], the “IC50, PANC-1” value stood at 0.021 µg/mL (≈ 0.0475 µM). The “IC50, RERF-LC-AI” value in assay [4] was 0.016 µg/mL (≈ 0.0362 µM). In addition, the “IC50, A549” value in assay [5] was determined as 0.051 µg/mL (≈ 0.115 µM). Moreover, the “MAC (Minimal Active Concentration)” value in assay [6] worked out at 0.0412 µg/mL.

As for `CCCNC(=Nc1nc(CC)ncc1CSc1nnc(-c2ccc(N)cc2)o1)NCCC` [Compound A-139], the “IC50, Ma44” value in assay [1] was 0.014 µg/mL (≈ 0.0308 µM). In assay [2], the “IC50, HT29” value turned out to be 0.008 µg/mL (≈ 0.0176 µM). Further, in assay [3], the “IC50, PANC-1” value worked out at 0.007 µg/mL (≈ 0.0154 µM). Moreover, in assay [4], the “IC50, RERF-LC-AI” value was 0.013 µg/mL (≈ 0.0286 µM). Further, the “IC50, A549” value in assay [5] stood at 0.013 µg/mL (≈ 0.0286 µM). In addition, the “MAC (Minimal Active Concentration)” value in assay [6] is below 0.000508 µg/mL.

In the case of `CCNC(=Nc1nc(C)ncc1CSc1nnc(-c2ccccc2N)o1)NC` [Compound A-1], in assay [1], the “IC50, Ma44” value is 0.039 µg/mL (≈ 0.0979 µM). In assay [2], the “IC50, HT29” value came to 0.012 µg/mL (≈ 0.0301 µM). Also, the “IC50, PANC-1” value in assay [3] worked out at 0.016 µg/mL (≈ 0.0402 µM). The “IC50, RERF-LC-AI” value in assay [4] was 0.018 µg/mL (≈ 0.0452 µM). The “IC50, A549” value in assay [5] is 0.022 µg/mL (≈ 0.0552 µM). Also, the “MAC (Minimal Active Concentration)” value in assay [6] stood at 0.0412 µg/mL.

As for `Cc1ncc(CSc2nnc(-c3ccc(N)cc3)o2)c(N=C(NC(C)C)NC(C)C)n1` [Compound A-166], the “IC50, Ma44” value in assay [1] worked out at 0.049 µg/mL (≈ 0.111 µM). Further, the “IC50, HT29” value in assay [2] was found to be 0.033 µg/mL (≈ 0.0749 µM). For the same compound, the “IC50, PANC-1” value in assay [3] was 0.028 µg/mL (≈ 0.0636 µM). Further, the “IC50, RERF-LC-AI” value in assay [4] amounted to 0.016 µg/mL (≈ 0.0363 µM). Also, the “IC50, A549” value in assay [5] turned out to be 0.056 µg/mL (≈ 0.127 µM). Moreover, the “MAC (Minimal Active Concentration)” value in assay [6] stood at 0.123 µg/mL.

Consider `C#CCNC(=Nc1nc(C)ncc1CSc1nnc(-c2ccc([N+](=O)[O-])cc2)o1)NCC` [Compound A-183], for which, in assay [1], the “IC50, Ma44” value is 0.0021 µg/mL (≈ 0.00464 µM). Also, the “IC50, HT29” value in assay [2] was found to be 0.002 µg/mL (≈ 0.00442 µM). In assay [3], the “IC50, PANC-1” value was 0.0026 µg/mL (≈ 0.00575 µM). For the same compound, the “IC50, RERF-LC-AI” value in assay [4] turned out to be 0.0013 µg/mL (≈ 0.00287 µM). Also, the “IC50, A549” value in assay [5] came to 0.0039 µg/mL (≈ 0.00862 µM). The “MAC (Minimal Active Concentration)” value in assay [6] is 0.00457 µg/mL.

With `CCCNC(=Nc1ncncc1CSc1nnc(-c2ccc(N)cc2)o1)NCC` [Compound A-178], the “IC50, Ma44” value in assay [1] is 0.024 µg/mL (≈ 0.0582 µM). The “IC50, HT29” value in assay [2] came out at 0.0067 µg/mL (≈ 0.0162 µM). Besides, the “IC50, PANC-1” value in assay [3] is 0.005 µg/mL (≈ 0.0121 µM). Also, the “IC50, RERF-LC-AI” value in assay [4] turned out to be 0.0036 µg/mL (≈ 0.00873 µM). In addition, the “IC50, A549” value in assay [5] was found to be 0.014 µg/mL (≈ 0.0339 µM). Also, the “MAC (Minimal Active Concentration)” value in assay [6] was found to be 0.0412 µg/mL.

As for `CCNC(=Nc1ncncc1CSc1nnc(-c2ccc(N)cc2)o1)NCC` [Compound A-3], the “IC50, Ma44” value in assay [1] turned out to be 0.09 µg/mL (≈ 0.226 µM). In assay [2], the “IC50, HT29” value stood at 0.0066 µg/mL (≈ 0.0166 µM). Besides, the “IC50, PANC-1” value in assay [3] was determined as 0.015 µg/mL (≈ 0.0376 µM). The “IC50, RERF-LC-AI” value in assay [4] turned out to be 0.026 µg/mL (≈ 0.0652 µM). The “IC50, A549” value in assay [5] was found to be 0.035 µg/mL (≈ 0.0878 µM). In assay [6], the “MAC (Minimal Active Concentration)” value was found to be 0.0412 µg/mL.
